{"source": "patent US8008542B2", "about": "“Compositions, cells, and plants that include BKI1, a negative regulator of BRI1-mediated BR signaling” (The Salk Institute for Biological Studies, priority 2007, dated 2011)", "molecules": {"B1": {"name": "BKI1 fused with GAL4-AD (BKI1-pEXAD502), full-length BKI1 (other, not shown: large carriers)", "chain": "METNLQQVKNSSQTFSEKQNPKQEASPSPISSTCSSPSHDFSFTISLQPLSSSSKHISPTLRSPSKTTSSYQQTDPFAVDLSPADEIFFHGHLLPLHLLSHLPVSPRTSTGSYNDGFTLPVKDILPDQPTNNNNNTENAITNISTEAKDDNTEDKAEGEIRVKTKPIKSFSLFGLSKWRKGFESNEREQEQQQQKIKKPMSLDLSHAVKKYIRMLFQKRGNGTQFWNRRQTSSYSFSSSLMGPNGNSKTMINGSYNKRDLIRGRRGELFSAPASMRTSPTNSGHLRVSTAGLSSSSGSTSSSSSDSTMEELQAAIQAAIAHCKNSSAVDRDDKVKDS", "notes": "Yeast two-hybrid prey; it is put N-terminal here; also called BKI1-FL; At5g42750"}}, "key": {"Arabidopsis seedlings": {"tested_on": "Arabidopsis seedlings", "assay": "Hypocotyl length response to BL, short-day grown seedlings", "assay_type": "in vivo"}, "BES1": {"tested_on": "BES1", "assay": "BES1 phosphorylation status by immunoblot with anti-BES1", "assay_type": "in vivo, Arabidopsis", "method": "To determine whether the growth inhibitory effect caused by the over-expression of BKI1-YFP was due to an inhibition of BRI1 signaling, we tested the phosphorylation status of a downstream biochemical marker, BES1 (10), by immunoblot analysis.\nSeedlings were grown in short day photoperiods for seven days. At least ten short-day grown seedlings were measured. In FIGS. 2A-B the pBKI1::GUS line was used as a control (control). RNAi-2 and RNAi-7 were two independent RNAi knockdown lines for BKI1. In FIG. 2 C-E, phenotype of plants overexpressing BKI1-FLAG, with Col-0 (left) and a BKI1-FLAG line (right) are shown. 2C. Short-day grown seedlings. 2D. Long-day grown seedlings. 2E. Long-day grown adult plants. In FIG. 2F, leaf morphology of seedlings grown in short days. Col-0 (right) and a BKI1-FLAG line (left) are shown. In FIG. 2G, over-expression of BKI1-YFP leads to a reduced response (hypocotyl length) to BL. At least twenty short-day grown seedlings were measured. In FIG. 2H, over-expression of BKI1-YFP leads to an enhanced response to BRZ220. At least twenty dark-grown seedlings were measured. In FIG. 2I, over-expression of BKI1-YFP results in reduced accumulation of dephosphorylated BES1. Immunoblots with anti-BES1 show levels of phosphorylated BES1 (pBES1) and dephosphorylated BES1. Bottom band: loading control. In FIG. 2J, Over-expression of BKI1-YFP alters the expression of BR-regulated genes. […]"}, "[1]": {"tested_on": "plasma membrane-association of BKI1-YFP", "assay": "Subcellular localization of BKI1-YFP in root tip cells (confocal)", "assay_type": "cell-based, Arabidopsis", "conditions": "for plasma membrane-association of BKI1-YFP following BL treatment: wild-type background, grown on 1 μM BRZ220, treated with 1 μM BL", "method": "To investigate where in the pathway BKI1 acts, we examined the subcellular localization of the BKI1-YFP fusion protein in plants. BKI1-YFP was localized to both the plasma membrane and the cytosol in root tip cells (FIG. 3A). When the BKI1-YFP line was grown on medium containing 1 μM BRZ220, which reduces the levels of endogenous brassinosteroids (22), the fluorescent signal on the cell surface was enhanced (FIG. 3B).\nIn FIG. 3A, BKI1-YFP is localized to the plasma membrane and cytosol on MS medium. In FIG. 3B, BRZ220 enhances the association of BKI1-YFP to the plasma membrane. Seedlings were grown on MS medium containing 1 μM BRZ220. In FIG. 3C, BL enhances BKI1-YFP dissociation from the plasma membrane. Seedlings were grown on MS medium containing 1 μM BL. […] Seedlings were grown on MS medium containing 1 μM of BRZ220 and treated with 1 μM BL. J-L. BKI1-YFP is associated with the plasma membrane in bri1-116. Seedlings were grown on MS medium containing 1 μM of BRZ220. bri1-116 is a null allele of BRI1 (19). […] Seedlings were grown on MS medium containing 1 μM BL. […] Seedlings were grown on MS medium containing 1 μM BRZ220. 3D, G, J, M, and P are untreated; E, H, K, N, and Q are treated with BL for 5 min, and F, I, L, O, and R are treated with BL for 10 min.\nSeedlings were grown on MS medium containing 1 μM of BRZ220. The time of BL treatment is indicated. Top panels: BKI1-YFP; Lower panels: myriBKI1-YFP. […] Immunoblots with anti-GFP show levels of myriBKI1-YFP and BKI1-YFP. Bottom band: loading control. […] The total ^35S-Met labeled BRI1-KD-HIS co-precipitated by GST-BAK1-KD was defined as “1”. Five replicates were conducted. Error bars indicate standard error. 1, GST-BAK1-KD±35S-BRI1-KD-HIS; 2, GST-BAK1-KD+35S-BRI1-KD-HIS+10 μM of MBP; 3, GST-BAK1-KD+35S-BRI1-KD-HIS+10 μM of MBP-BKI1. […] Without BL, BRI1 kinase is kept in a basal state by both its own carboxyl terminal domain and by an interaction with BKI1. Brassinosteroid binding to the extracellular domain of BRI1 induces a conformational change of the kinase domain, leading to the phosphorylation of the C-terminal domain of BRI1 and BKI1, the dissociation of BKI1 from the plasma membrane, and the release of autoinhibition of BRI1. These events lead to the full activation of BRI1 and its association with BAK1 or other substrates. Plasma membrane-dissociated BKI1 may also regulate other unknown components in the brassinosteroid signaling cascade. BSU1 is a nuclear serine/threonine phosphatase involved in the dephosphorylation of BES1 (27).\nThe predicted full-length BKI1 was amplified by RT-PCR from total RNA of Col-0 using Pfu DNA polymerase (Stratagene), and cloned into the binary vector pCHF3 that contains a 35S promoter (10), three copies of FLAG ([…], SEQ ID NO:8) fused at the Cterminal end, and the RubisCo small subunit (rbcS) terminator. For the YFP fusion construct, full length BKI1 was cloned into a modified pCHF3 containing a 35S promoter and a C-terminal YFP tag. For the myriBKI1-YFP construct, a myristoylation site (MGICMSR, SEQ ID NO:9) was added to the N-terminus of BKI1-YFP via PCR. All constructs were confirmed by sequencing and transformed into Col-0 plants. The subcellular localization of BKI1-YFP and myriBKI1-YFP was visualized and photographed using a Leica TCS SP2 confocal microscope (Leica Microsystems, Germany)."}, "Saur-AC1": {"tested_on": "Saur-AC1", "assay": "qRT-PCR of brassinosteroid-regulated gene Saur-AC1", "assay_type": "in vivo, Arabidopsis", "conditions": "Plus BL (100 nM, 2.5 hrs)", "method": "(§1) Plants were treated with 100 nM BL, or a mock treatment for 2.5 hrs. Total RNA was extracted using a Qiagen RNAeasy kit (Valencia, Calif.), and the first strand cDNA was synthesized using Invitrogen Superscript III First-Strand cDNA Synthesis kit. cDNAs were combined with SYBR master mix for PCR. Primers for each gene are shown as follows. CPD (At5g05690): 5′-TTACCGCAAAGCCATCCAA-3′ (SEQ ID NO:10) and 5′-[…]-3′ (SEQ ID NO:11); DWF4 (At3g50660): 5′-[…]-3′ (SEQ ID NO:12) and 5′-[…]-3′ (SEQ ID NO:13); Saur-AC1 (At4g38850): 5′-[…]-3′ (SEQ ID NO:14) and 5′-[…]-3′ (SEQ ID NO:15); and BKI1: 5′-GCTCCGGCGTCGATGA-3′ (SEQ ID NO:16) and 5′-[…]-3′ (SEQ ID NO:17). A U-box gene (At5g15400) was used to normalize the data (5′-[…]-3′ (SEQ ID NO:18) and 5′-TGCTGCCCAACATCAGGTT-3′ (SEQ ID NO:19)). PCR reactions were performed in triplicate or quadruplicate with a Bio-Rad iCycler, and the data were collected and analyzed with Bio-Rad MyiQ Single-Color Real-Time PCR Detection System."}, "DWF4": {"tested_on": "DWF4", "assay": "qRT-PCR of brassinosteroid-regulated gene DWF4", "assay_type": "in vivo, Arabidopsis", "conditions": "100 nM BL for 2.5 hrs", "method": "as §1"}, "CPD": {"tested_on": "CPD", "assay": "qRT-PCR of brassinosteroid-regulated gene CPD", "assay_type": "in vivo, Arabidopsis", "conditions": "100 nM BL for 2.5 hrs", "method": "as §1"}, "[2]": {"target": "T1, BRL3 kinase domain (BRL3-KD) fused with GAL4-DB (in pDBLeu) (UniProt P04386 1-147; Q9LJF3 794-1164, limits assumed)", "T1 construct": "domain: GAL4-DB;domain: kinase domain; Yeast two-hybrid bait", "assay": "yeast two-hybrid"}, "[3]": {"target": "full-length BIN2 in pDBLeu (GAL4-DB fusion) (UniProt P04386 1-147; Q39011 1-380)", "assay": "yeast two-hybrid"}, "[4]": {"target": "full length TTL in pDBLeu (GAL4-DB fusion) (Arabidopsis, UniProt P04386 1-147; Q9LVM5 1-324, limits assumed)", "assay": "yeast two-hybrid"}, "[5]": {"target": "T2, CLV1 kinase domain (CLV1-KD) fused with GAL4-DB (in pDBLeu) (UniProt P04386 1-147; Q9SYQ8 660-980, limits assumed)", "T2 construct": "domain: GAL4-DB;domain: kinase domain; Yeast two-hybrid bait", "assay": "yeast two-hybrid"}, "[6]": {"target": "T3, kinase domain of NIK1 (NIK1-KD) in pDBLeu (GAL4-DB fusion) (UniProt P04386 1-147; Q9LFS4 270-638, limits assumed)", "T3 construct": "domain: GAL4-DB;domain: kinase domain; Yeast two-hybrid bait", "assay": "yeast two-hybrid"}, "[7]": {"target": "T4, kinase domain of BAK1 (BAK1-KD) in pDBLeu (GAL4-DB fusion) (UniProt P04386 1-147; Q94F62 247-615, limits assumed)", "T4 construct": "domain: GAL4-DB;domain: kinase domain; Yeast two-hybrid bait", "assay": "yeast two-hybrid"}, "[8]": {"target": "T5, BRL1 kinase domain (BRL1-KD) fused with GAL4-DB (in pDBLeu) (UniProt P04386 1-147; Q9ZWC8 798-1166, limits assumed)", "T5 construct": "domain: GAL4-DB;domain: kinase domain; Yeast two-hybrid bait", "assay": "yeast two-hybrid"}}}
{"molecule": "CC(C)[C@H](C)[C@@H](O)[C@H](O)[C@@H](C)[C@H]1CC[C@H]2[C@@H]3COC(=O)[C@H]4C[C@H](O)[C@H](O)C[C@]4(C)[C@H]3CC[C@]12C", "note": "[BL, brassinolide]", "values": [{"measurement": "response to BL treatment (hypocotyl length)", "setting": "Arabidopsis seedlings; det2-1 brassinosteroid biosynthetic mutant", "value": "highly responsive"}, {"measurement": "sensitivity to BL applications compared to wild type (fold less sensitive)", "setting": "Arabidopsis seedlings; plants over-expressing BKI1-YFP, hypocotyl length", "value": "at least 100 fold"}, {"measurement": "accumulation of dephosphorylated BES1", "setting": "BES1; det2-1, 0.1 μM BL for one hour", "value": "strongly stimulated"}, {"measurement": "accumulation of dephosphorylated BES1", "setting": "BES1; wild type, 0.1 μM BL for one hour", "value": "strongly stimulated"}, {"measurement": "BL-induced dissociation of BKI1-YFP from the plasma membrane", "setting": "[1]; bri1-104 (kinase inactive allele)", "value": "no BL-induced dissociation"}, {"measurement": "BL-induced dissociation of BKI1-YFP from the plasma membrane", "setting": "[1]; bri1-116 homozygous seedlings (null allele)", "value": "failed to induce the dissociation"}, {"measurement": "plasma membrane-association of BKI1-YFP", "setting": "[1]; grown on medium containing 1 μM BL", "value": "reduced"}, {"measurement": "plasma membrane-association of BKI1-YFP following BL treatment", "setting": "[1]; 10 minutes", "value": "undetectable"}, {"measurement": "plasma membrane-association of BKI1-YFP following BL treatment", "setting": "[1]; after 5 minutes", "value": "almost completely gone"}, {"measurement": "expression of Saur-AC1 (RNA level, WT without BL = 1.00)", "setting": "Saur-AC1; BKI1-YFP line", "value": "1.65±0.11"}, {"measurement": "expression of Saur-AC1 (RNA level, WT without BL = 1.00)", "setting": "Saur-AC1; WT", "value": "4.68±0.31"}, {"measurement": "expression of DWF4 (RNA level, WT without BL = 1.00)", "setting": "DWF4; BKI1-YFP line", "value": "0.80±0.06"}, {"measurement": "expression of DWF4 (RNA level, WT without BL = 1.00)", "setting": "DWF4; WT", "value": "0.27±0.01"}, {"measurement": "expression of CPD (RNA level, WT without BL = 1.00)", "setting": "CPD; BKI1-YFP line", "value": "0.83±0.05"}, {"measurement": "expression of CPD (RNA level, WT without BL = 1.00)", "setting": "CPD; WT", "value": "0.47±0.03"}]}
{"molecule": "B1", "values": [{"measurement": "binding result", "setting": "[2]", "value": "no binding"}, {"measurement": "binding result", "setting": "[3]", "value": "no binding"}, {"measurement": "binding result", "setting": "[4]", "value": "no binding"}, {"measurement": "binding result", "setting": "[5]", "value": "no binding"}, {"measurement": "binding result", "setting": "[6]", "value": "no binding"}, {"measurement": "binding result", "setting": "[7]", "value": "no binding"}, {"measurement": "binding result", "setting": "[8]", "value": "no binding"}]}
